The source of these data is patent EP4678638A1, “NEW E3 UBIQUITIN LIGASE LIGAND, PROTEIN DEGRADATION AGENT AND USE THEREOF” (priority 2023, dated 2024).

One test addresses T1, IRAK4 (Homo sapiens, UniProt Q9NWZ3).
T1 construct: evaluate the effects of the compounds of the present disclosure on the expression of target proteins in cells; endogenous in cells; host or cells: hPBMC
T1 sequence (Q9NWZ3 1-460): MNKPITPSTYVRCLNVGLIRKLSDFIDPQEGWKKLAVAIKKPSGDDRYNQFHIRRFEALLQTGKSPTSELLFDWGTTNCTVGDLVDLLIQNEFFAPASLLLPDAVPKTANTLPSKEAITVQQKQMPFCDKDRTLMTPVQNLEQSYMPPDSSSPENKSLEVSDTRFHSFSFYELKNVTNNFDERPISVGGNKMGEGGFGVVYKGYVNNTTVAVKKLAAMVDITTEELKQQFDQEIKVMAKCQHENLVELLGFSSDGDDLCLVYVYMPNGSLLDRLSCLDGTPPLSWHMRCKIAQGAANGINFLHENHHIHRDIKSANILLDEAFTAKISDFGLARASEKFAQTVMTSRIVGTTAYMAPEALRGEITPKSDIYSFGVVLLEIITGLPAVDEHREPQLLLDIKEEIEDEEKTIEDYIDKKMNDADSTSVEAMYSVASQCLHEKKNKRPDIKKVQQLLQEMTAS
Nature of the test: Western blot degradation of IRAK4 (hPBMC). In kind it is cell-based. Particulars: Table D1. The method, boiled down:
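Quantification by ImageJ densitometry of Western blot bands: DC50 is the fitted concentration halving band intensity relative to DMSO. Percent remaining uses internal-control normalization, and degradation rate is its complement.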

The subject of another test is MM.1S. Description: CCK-8 proliferation, MM.1S. In kind it is cell-based. Conditions: Homo sapiens, MM1.S; Table B10, compounds designed based on the IRAK4 inhibitors; MM.1S cells; read-out: Inhibitory activity (IC50, nM) on tumor cell proliferation, MM.1S. The procedure: (§1) The tumor cells used herein were cultured in a cell culture medium listed in table A1 at 37°C in an incubator with 5% CO2. Prior to experimentation, all cell lines used were correctly identified by STR profiling, and tested negative for mycoplasma contamination using a mycoplasma detection kit through routine screenings. Table A1. Tumor cells and cell culture medium used in the present disclosure
(§2) IC50 values of the compounds of the present disclosure (including the compounds in Table 1, and compounds of examples) were measured using the Meilun Cell Counting Kit-8 kit from Dalian Meilun Biotech Co., Ltd. Assay details are as follows: tumor cells were seeded in a 96-well plate at a density listed in Table A2. After 24h, 100 µL of the inoculated cells were treated with 0.5µL of the compounds of the present disclosure (including the compounds in Tables 1 and 2, and compounds of examples) at 10 different successively decreasing concentrations (starting at the highest concentration of 10µM; 5-fold serial dilutions). After the cells were treated with the compounds of the present disclosure for a period of time, the cell viability detection reagent was added to the culture medium for cell viability assessment according to the instructions provided with the CCK-8 kit. […] The growth inhibition of the compounds of the present disclosure on cells was plotted by Prism Graphpad software, and the IC50 values of the compounds of the present disclosure were calculated therefrom. […] Seeding protocol and treatment time for tumor cells

Another test has as its system SR. Nature of the test: CCK-8 proliferation, SR. Conditions: Homo sapiens; Table B10, compounds designed based on the IRAK4 inhibitors; SR cells; read-out: Inhibitory activity (IC50, nM) on tumor cell proliferation, SR. In kind it is cell-based, Human. The procedure:
as §1, §2

Test [1] deals with T2, human Cereblon WT GST-tagged protein (Homo sapiens, UniProt Q96SW2).
T2 construct: purchased CISBIO 64BDCRBNPEH
T2 sequence (Q96SW2 whole entry): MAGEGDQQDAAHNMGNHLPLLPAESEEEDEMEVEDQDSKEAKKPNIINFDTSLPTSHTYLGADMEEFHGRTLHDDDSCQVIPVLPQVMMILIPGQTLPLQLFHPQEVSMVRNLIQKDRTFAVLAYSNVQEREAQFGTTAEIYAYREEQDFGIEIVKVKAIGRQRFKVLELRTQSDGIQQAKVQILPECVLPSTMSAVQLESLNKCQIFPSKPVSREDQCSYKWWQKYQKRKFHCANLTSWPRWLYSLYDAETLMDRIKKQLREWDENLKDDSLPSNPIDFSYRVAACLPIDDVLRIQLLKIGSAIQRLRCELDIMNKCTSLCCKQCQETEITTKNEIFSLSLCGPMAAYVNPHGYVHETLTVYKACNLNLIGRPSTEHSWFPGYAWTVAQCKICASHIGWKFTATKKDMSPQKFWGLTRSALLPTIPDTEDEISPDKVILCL
Description: CRBN binding, HTRF (CEREBLON BINDING kit). Particulars: Table II-2, CRBN binding screening, HTRF; for inhibition at 0.5 µM: read-out: Inhibition rate (%) at 0.5µM; for inhibition at 2 µM: read-out: Inhibition rate (%) at 2 µM. An outline of the steps: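 Competitive HTRF: GST-tagged human WT Cereblon mixed with compound, Thalidomide-Re tracer and GST Eu antibody, incubated 3 h at room temperature. Signals read at 620 and 665 nm.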

Another test addresses T3, ALK (Homo sapiens, UniProt Q96SW2+Q9HC35+Q9UM73).
T3 construct: evaluate the effects of the compounds of the present disclosure on the expression of target proteins in cells; endogenous in cells; host or cells: H2228
Nature of the test: Western blot degradation of ALK (H2228 Cell). The test is classed as cell-based. Conditions: Table D5. The procedure: Conventional Western blot assay was performed to evaluate the effects of the compounds of the present disclosure on the expression of target proteins in cells.
(1) Cell Seeding and Protein Harvesting: The selected cells were processed according to the cell seeding procedure and protein harvesting procedure in Table III-2. Table III-2 Cell Seeding and Protein Harvesting Procedures
(2) To the collected supernatant, 5X SDS sample loading buffer was added, followed by denaturation at 95°C for 5 minutes. The denatured samples were then separated by SDS-PAGE electrophoresis on a polyacrylamide gel. Proteins were transferred to a nitrocellulose membrane (0.45 µm NC membrane), blocked with blocking buffer at room temperature for 1 hour, and subjected to antibody incubation and development procedures according to the antibody manufacturer's instructions (Cell Signaling Technology).
Half-Maximal Degradation Concentration value (the drug concentration required for degrading proteins by 50%, abbreviated as DC50) reads method: comparing the grayscale values of Western blot bands from drug-treated samples with those from blank DMSO-treated controls, and identifying the drug concentration range at which the grayscale value is half that of the DMSO-treated control bands.
DC50 values can be calculated using ImageJ software to measure grayscale values of Western blot bands from drug-treated samples. The concentration-response curve is fitted to estimate the drug concentration corresponding to half the grayscale value.
Target protein remaining (%) refers to the percentage of target protein remaining in hPBMC cells after treatment with protein degrader compounds.
Calculation method for target protein remaining (%): Use ImageJ software to measure grayscale values of Western blot bands from drug (protein degrader)-treated samples. The grayscale value of drug-treated bands is divided by that of internal control protein bands, and the resulting quotient is normalized to obtain the relative percentage of remaining target protein after protein degrader treatment.
Target protein degradation rate (%) = 100% - target protein remaining (%).

SMILES strings stand for the structures.

T3 sequence (Q9HC35+Q9UM73 fused): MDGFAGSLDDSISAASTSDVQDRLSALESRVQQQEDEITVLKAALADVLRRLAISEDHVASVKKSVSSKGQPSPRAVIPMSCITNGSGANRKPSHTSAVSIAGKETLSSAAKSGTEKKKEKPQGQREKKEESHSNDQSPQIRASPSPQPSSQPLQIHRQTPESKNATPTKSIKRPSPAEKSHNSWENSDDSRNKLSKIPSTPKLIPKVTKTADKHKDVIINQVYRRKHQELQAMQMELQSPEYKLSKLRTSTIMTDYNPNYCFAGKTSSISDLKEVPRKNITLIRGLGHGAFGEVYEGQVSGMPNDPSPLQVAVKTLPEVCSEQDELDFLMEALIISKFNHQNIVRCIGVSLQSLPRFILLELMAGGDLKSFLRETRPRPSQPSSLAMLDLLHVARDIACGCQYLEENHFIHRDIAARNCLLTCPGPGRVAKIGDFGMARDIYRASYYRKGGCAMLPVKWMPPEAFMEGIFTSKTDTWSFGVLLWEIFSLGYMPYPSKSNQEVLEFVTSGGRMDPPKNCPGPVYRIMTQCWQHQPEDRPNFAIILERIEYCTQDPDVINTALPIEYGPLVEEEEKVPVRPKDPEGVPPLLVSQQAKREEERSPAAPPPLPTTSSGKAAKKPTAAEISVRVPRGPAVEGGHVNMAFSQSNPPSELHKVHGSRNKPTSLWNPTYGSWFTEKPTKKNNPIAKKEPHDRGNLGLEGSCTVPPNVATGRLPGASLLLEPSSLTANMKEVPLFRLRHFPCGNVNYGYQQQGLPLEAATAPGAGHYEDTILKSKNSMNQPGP
T3 sequence (Q96SW2 whole entry): as the sequence (Q96SW2 whole entry) above
T3 sequence (Q16531 whole entry partner): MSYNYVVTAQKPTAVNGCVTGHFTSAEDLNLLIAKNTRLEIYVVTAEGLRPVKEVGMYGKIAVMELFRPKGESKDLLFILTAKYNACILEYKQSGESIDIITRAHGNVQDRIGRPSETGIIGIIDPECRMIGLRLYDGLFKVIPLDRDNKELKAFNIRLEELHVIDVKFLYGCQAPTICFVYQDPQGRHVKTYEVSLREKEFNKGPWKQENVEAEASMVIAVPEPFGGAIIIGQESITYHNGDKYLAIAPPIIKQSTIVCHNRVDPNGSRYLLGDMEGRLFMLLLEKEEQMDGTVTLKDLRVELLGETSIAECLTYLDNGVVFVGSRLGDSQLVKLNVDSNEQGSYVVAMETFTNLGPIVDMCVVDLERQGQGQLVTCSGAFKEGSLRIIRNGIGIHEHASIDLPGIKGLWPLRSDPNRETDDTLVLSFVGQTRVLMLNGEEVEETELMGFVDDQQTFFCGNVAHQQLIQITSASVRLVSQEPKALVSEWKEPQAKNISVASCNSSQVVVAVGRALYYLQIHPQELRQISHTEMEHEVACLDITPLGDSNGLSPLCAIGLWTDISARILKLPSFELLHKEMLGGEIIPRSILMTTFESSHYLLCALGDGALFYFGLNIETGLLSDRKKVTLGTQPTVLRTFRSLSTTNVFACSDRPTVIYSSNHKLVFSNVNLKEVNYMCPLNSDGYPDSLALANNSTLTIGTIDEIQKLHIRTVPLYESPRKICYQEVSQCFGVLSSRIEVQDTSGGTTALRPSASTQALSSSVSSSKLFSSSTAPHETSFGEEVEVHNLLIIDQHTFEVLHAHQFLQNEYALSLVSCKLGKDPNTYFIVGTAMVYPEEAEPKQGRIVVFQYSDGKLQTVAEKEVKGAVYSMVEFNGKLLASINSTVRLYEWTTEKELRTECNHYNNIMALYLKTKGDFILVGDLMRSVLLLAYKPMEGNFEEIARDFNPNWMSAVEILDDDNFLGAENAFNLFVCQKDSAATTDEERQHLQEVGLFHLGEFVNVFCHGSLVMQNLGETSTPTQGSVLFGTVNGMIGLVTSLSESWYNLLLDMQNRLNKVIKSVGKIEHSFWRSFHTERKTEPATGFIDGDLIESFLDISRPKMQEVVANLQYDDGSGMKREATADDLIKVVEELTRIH

Consider `O=C1CCN(c2ccc(CN3CCC(n4cc(NC(=O)c5coc(-c6ccnc(NCC7CC7)c6)n5)c(C(F)F)n4)CC3)cc2)C(=O)N1` [GT-04956, 2-(2-((cyclopropylmethyl)amino)pyridin-4-yl)-N-(3-(difluoromethyl)-1-(1-(4-(2,4-dioxotetrahydropyrimidin-1(2H)-yl)benzyl)piperidin-4-yl)-1H-pyrazol-4-yl)oxazole-4-carboxamide], for which, at IRAK4, the “Degradation of substrate protein IRAK4 (substrate protein remaining %)” value was “A (A is defined as 0% ≤ substrate protein remaining % ≤ 80%)”. Further, in the test on MM.1S, the IC50 fell in the range of 100 to 500 nM.
Turning to `O=C1CCN(c2ccc(CN3CCC(n4cc(NC(=O)c5coc(-c6ccnc(NCC7CC7)c6)n5)c(C(F)F)n4)CC3)nc2)C(=O)N1` [GT-04958, 2-(2-((cyclopropylmethyl)amino)pyridin-4-yl)-N-(3-(difluoromethyl)-1-(1-((5-(2,4-dioxotetrahydropyrimidin-1(2H)-yl)pyridin-2-yl)methyl)piperidin-4-yl)-1H-pyrazol-4-yl)oxazole-4-carboxamide], the “Degradation of substrate protein IRAK4 (substrate protein remaining %)” value on IRAK4 is recorded as “A (A is defined as 0% ≤ substrate protein remaining % ≤ 80%)”. For the same compound, in the test with MM.1S, the IC50 lay within 100 to 500 nM.
On to `O=C1CCC(Nc2cccc(CN3CCN(Cc4ccc5c(c4)nc(NC(=O)c4cccc(C(F)(F)F)c4)n5C4CCC(CO)CC4)CC3)c2)C(=O)N1` (stereo not shown) [GT-04976, N-(5-((4-(3-((2,6-dioxopiperidin-3-yl)amino)benzyl)piperazin-1-yl)methyl)-1-((1s,4s)-4-(hydroxymethyl)cyclohexyl) -1H-benzo[d]imidazol-2-yl)-3-(trifluoromethyl)benzamide], for which the “Degradation of substrate protein IRAK4 (substrate protein remaining %)” value on IRAK4 is “A (A is defined as 0% ≤ substrate protein remaining % ≤ 80%)”. Moreover, the IC50 in the test with MM.1S and in the test with SR was 100 to 500 nM throughout.
On to `O=C1CCN(c2cccc(CN3CCN(Cc4ccc5c(c4)nc(NC(=O)c4cccc(C(F)(F)F)c4)n5[C@H]4CC[C@@H](CO)CC4)CC3)c2)C(=O)N1` [GT-04977, N-(5-((4-(3-(2,4-dioxotetrahydropyrimidin-1(2H)-yl)benzyl)piperazin-1-yl)methyl)-1-((1s,4s)-4-(hydroxymethyl)cyclohexyl) -1H-benzo[d]imidazol-2-yl)-3-(trifluoromethyl)benzamide], for which, on IRAK4, the “Degradation of substrate protein IRAK4 (substrate protein remaining %)” value is on record as “A (A is defined as 0% ≤ substrate protein remaining % ≤ 80%)”. The IC50 with MM.1S and in the test with SR was 100 to 500 nM each time.
For `CC(C)(O)c1cc2nc(C3CCN(Cc4cncc(C5CCC(=O)NC5=O)c4)CC3)sc2cc1NC(=O)c1cccc(C(F)(F)F)n1` (stereo not shown) [GT-07624, N-(2-(1-((5-(2,6-dioxopiperidin-3-yl)pyridin-3-yl)methyl)piperidin-4-yl)-5-(2-hydroxypropan-2-yl)benzo[d]thiazol-6-yl)-6-(trifluoromethyl)picolinamide], the “Degradation of substrate protein IRAK4 (substrate protein remaining %)” value at IRAK4 is “A (A is defined as 0% ≤ substrate protein remaining % ≤ 80%)”. For the same compound, in test [1], the inhibition (commonly the drop in the measured response relative to a control, in per cent) at 0.5 µM lay within 20 to 30% and the inhibition at 2 µM was in the range of 60 to 80%.
The corresponding values for `CC(C)(O)c1cc2nc(C3CCN(Cc4cc(N5CCC(=O)NC5=O)ncc4F)CC3)oc2cc1NC(=O)c1cccc(C(F)(F)F)n1` [GT-07626, N-(2-(1-((2-(2,4-dioxotetrahydropyrimidin-1(2H)-yl)-5-fluoropyridin-4-yl)methyl)piperidin-4-yl)-5-(2-hydroxypropan-2-yl)benzo[d]oxazol-6-yl)-6-(trifluoromethyl)picolinamide] are “A (A is defined as 0% ≤ substrate protein remaining % ≤ 80%)”, 20 to 30% and 60 to 80%.
As for `CC(C)(O)c1cc2nc(C3CCN(Cc4cncc(N5CCC(=O)NC5=O)c4)CC3)oc2cc1NC(=O)c1cccc(C(F)(F)F)n1` [GT-07628, N-(2-(1-((5-(2,4-dioxotetrahydropyrimidin-1(2H)-yl)pyridin-3-yl)methyl)piperidin-4-yl)-5-(2-hydroxypropan-2-yl)benzo[d]oxazol-6-yl)-6-(trifluoromethyl)picolinamide], at IRAK4, the “Degradation of substrate protein IRAK4 (substrate protein remaining %)” value is “A (A is defined as 0% ≤ substrate protein remaining % ≤ 80%)”. Moreover, in test [1], the inhibition at 0.5 µM is 20 to 30% and the inhibition at 2 µM was 60 to 80%.
Regarding `COc1cc(N2CCN(Cc3cc(N4CCC(=O)NC4=O)cnc3F)CC2)ccc1Nc1ncc(Cl)c(Nc2ccccc2P(C)(C)=O)n1` [GT-07748, 1-(5-((4-(4-((5-chloro-4-((2-(dimethylphosphoryl)phenyl)amino)pyrimidin-2-yl)amino)-3-methoxyphenyl)piperazin-1-yl)methyl)-6-fluoropyridin-3-yl)dihydropyrimidine-2,4(1H,3H)-dione], the “Degradation of substrate protein ALK (substrate protein remaining %)” value at ALK was “A (A is defined as 0% ≤ substrate protein remaining % ≤ 80%)”.
On to `COc1cc(N2CCN(Cc3cnc(N4CCC(=O)NC4=O)cn3)CC2)ccc1Nc1ncc(Cl)c(Nc2ccccc2P(C)(C)=O)n1` [GT-07749, 1-(5-((4-(4-((5-chloro-4-((2-(dimethylphosphoryl)phenyl)amino)pyrimidin-2-yl)amino)-3-methoxyphenyl)piperazin-1-yl)methyl)pyrazin-2-yl)dihydropyrimidine-2,4(1H,3H)-dione], for which, on ALK, the “Degradation of substrate protein ALK (substrate protein remaining %)” value is reported as “A (A is defined as 0% ≤ substrate protein remaining % ≤ 80%)”.
On the same count and under the same terms, the entry for `COc1cc(N2CCC(N(C)Cc3cc(N4CCC(=O)NC4=O)cnc3F)CC2)ccc1Nc1ncc(Cl)c(Nc2ccccc2P(C)(C)=O)n1` [GT-07750, 1-(5-(((1-(4-((5-chloro-4-((2-(dimethylphosphoryl)phenyl)amino)pyrimidin-2-yl)amino)-3-methoxyphenyl)piperidin-4-yl)(methyl)amino)methyl)-6-fluoropyridin-3-yl)dihydropyrimidine-2,4(1H,3H)-dione] is “A (A is defined as 0% ≤ substrate protein remaining % ≤ 80%)”.
Regarding `CC(C)(O)c1cc2nc(C3CCN(Cc4ccc(C5CCC(=O)NC5=O)cn4)CC3)oc2cc1NC(=O)c1cccc(C(F)(F)F)n1` (stereo not shown) [GT-07763, N-(2-(1-((5-(2,6-dioxopiperidin-3-yl)pyridin-2-yl)methyl)piperidin-4-yl)-5-(2-hydroxypropan-2-yl)benzo[d]oxazol-6-yl)-6-(trifluoromethyl)picolinamide], the “Degradation of substrate protein IRAK4 (substrate protein remaining %)” value on IRAK4 is “A (A is defined as 0% ≤ substrate protein remaining % ≤ 80%)”. In test [1], the inhibition at 0.5 µM lay in the range of 40 to 53% and the inhibition at 2 µM is 60 to 80%.
